{"source": "patent US20260366023A1", "about": "“SORTILIN INHIBITORS FOR TREATMENT OF PATIENTS WITH FUNCTIONAL NEUROENDOCRINE TUMORS” (priority 2023, published 2026)", "molecules": {"B1": {"name": "AL001: anti-sortilin antibody; heavy chain having an amino acid sequence of SEQ ID NO: 1 and a light chain having an amino acid sequence of SEQ ID NO: 2 (antibody, chains of the INN, looked up, V domains shown)", "VH": "QVQLQESGPGLVKPSETLSLTCAVSGYSISSGYYWGWIRQPPGKGLEWIGTIYHSGSTYYNPSLKSRVTISVDTSKNQFSLKLSSVTAADTAVYYCARQGSIKQGYYGMDVWGQGTTVTVSS", "VL": "DIVMTQSPLSLPVTPGEPASISCRSSQSLLRSTGYNYLDWYLQKPGQSPQLLIYLGSNRASGVPDRFSGSGSGTDFTLKISRAEAEDVGVYYCMQQQEAPLTFGGGTKVEIK"}}, "key": {"[1]": {"tested_on": "BON neuroendocrine tumor cells", "experiment": "Serotonin (5HT) content of BON cell lysates after sortilin inhibition, HPLC", "type": "cell-based, human", "conditions": "10 μM; 23 h in serotonin free medium, then fresh inhibitor for two more hours; compared to control", "method": "(§1) (A)-(D) BON neuroendocrine tumor cells were incubated for 23 h in serotonin free medium with (Sort Inh) or without (Control) the sortilin inhibitor AF38469 (10 μM). Afterwards, the serotonin (5HT, A), Tryptophan (TRP, B) and Tyrosin (TYR, C) content as well as the content of the serotonin metabolite 5-hydroxyindoleacetic acid (5-HIAA) in the cell culture supernatant was assessed using high performance liquid chromatography (HPLC). The cells were treated with fresh sortilin inhibitor for two more hours. Subsequently, the 5HT, (E, F), TRP, (G, H) and TYR (I, J) content in the cell lysates was measured in the presence or absence of the secretion inductor of monoamines Paramethoxyamphetamin (PMA) via HPLC as well.\n(§2) Next, we wanted to analyze whether sortilin has a functional role in hormone production or secretion of neuroendocrine tumors. We focused on one of the most relevant functional syndromes, i. e. the carcinoid syndrome which is caused due to the overproduction and secretion of serotonin (Clement et al., 2020). […] Afterwards we measured the serotonin (5HT) content in the cell culture supernatant by using high performance liquid chromatography (HPLC) (FIG. 3A-D). […] Subsequently, the 5HT content in the cell lysates was measured by using HPLC as well (FIG. 3E-J)."}, "[2]": {"tested_on": "BON neuroendocrine tumor cells", "experiment": "Serotonin (5HT) content of BON cell culture supernatant (secretion) after sortilin inhibition, HPLC", "type": "cell-based, human", "method": "as §1, §2"}, "[3]": {"tested_on": "BON cells", "experiment": "Alamar Blue cell proliferation/viability assay of BON cells after sortilin inhibition", "type": "cell-based, human", "conditions": "5 d of sortilin inhibition", "method": "FIG. 4: Proliferation of BON cells after sortilin inhibition. To exclude the possibility of toxic effects of sortilin inhibition on BON cells, a cell proliferation assay was performed using the Alamar Blue cell viability assay 5 days after sortilin inhibition.\nTo exclude the possibility of toxic effects of sortilin inhibition on the BON cells and thereby reducing 5HT production, we performed a cell proliferation assay using Alamar Blue."}, "[4]": {"tested_on": "murine intestinal organoids enriched with neuroendocrine cells", "experiment": "Serotonin content of murine intestinal organoids enriched with neuroendocrine cells, HPLC", "type": "cell-based", "conditions": "10 μM, four days, organoid lysates, vs control", "method": "FIG. 7: Effect of sortilin inhibition on serotonin content of neuroendocrine organoids. (A) Experimental scheme for testing the effects of sortilin inhibition on serotonin levels in neuroendocrine organoids. Murine intestinal organoids are generated and enriched with neuroendocrine cells as previously described in (Kawasaki et al, 2018; Basak et al, 2017). […] Organoids are subsequently incubated four days in the absence (control) or the presence of the sortilin inhibitor AF38469 (10 μM). The lysates of these organoids are next harvested, and serotonin levels are measured by HPLC.\nSome of these organoids were treated additionally four days with the sortilin inhibitor AF38469 (10 μM). Subsequently, the lysates of these organoids were harvested, and serotonin was measured by HPLC (FIG. 7A)."}, "[5]": {"tested_on": "sortilin", "conditions": "Schroder et al, 2014; cited from earlier work"}, "[6]": {"conditions": "Schroder et al, 2014; cited from earlier work"}, "[7]": {"conditions": "cited from earlier work"}, "[8]": {"conditions": "cited from earlier work", "remark": "listed apart in the source"}, "[9]": {"tested_on": "sortilin", "conditions": "Lee et al., 2014; cited from earlier work"}, "[10]": {"tested_on": "sortilin", "conditions": "Phase 2 and Phase 3 clinical trials, including NCT04374136, NCT03987295, NCT03636204 and NCT05053035; cited from earlier work"}}}
{"molecule": "Cc1cccc(NC(=O)c2ccc(C(F)(F)F)cc2C(=O)O)n1", "note": "[AF38469, 2-[[(6-methyl-2-pyridinyl)amino]carbonyl]-5-(trifluoromethyl)-benzoic acid]", "values": [{"measurement": "cellular content of 5HT", "setting": "[1]", "result": "significantly lower"}, {"measurement": "concentration of 5HT in the supernatants", "setting": "[2]; 10 μM, 23 h in serotonin free medium, HPLC", "result": "below the detection level"}, {"measurement": "secretion of serotonin by NEN cells", "setting": "[2]; NEN cells, summary statement referring to the Examples", "result": "suppress"}, {"measurement": "reduction in cell proliferation", "setting": "[3]", "result": "could exclude any reduction in cell proliferation"}, {"measurement": "concentration of serotonin (5HT) per cell", "setting": "[4]", "result": "lower concentration"}, {"measurement": "selectivity for sortilin over several of its naturally occurring ligands, including neurotensin-1", "setting": "[5]", "result": "highly selective"}, {"measurement": "oral bioavailability", "setting": "[6]", "result": "orally bioavailable"}]}
{"molecule": "Cc1cc(=O)oc2c(CN[C@@H](CC(C)C)C(=O)O)c(O)ccc12", "note": "[AF40431, (2S)-2-{[(7-hydroxy-4-methyl-2-oxo-2H-chromen-8-yl)methyl]amino}-4-methylpentanoic acid]", "values": [{"measurement": "solubility", "setting": "[7]", "result": "comparably poor"}, {"measurement": "membrane permeability", "setting": "[8]", "result": "comparably poor"}]}
{"molecule": "Cc1ccc(C(C)(C)C)c(OCCN2CCCC(C)C2)c1", "note": "(stereo not drawn) [MPEP, 1-[2-(2-tert-butyl-5-methylphenoxy)-ethyl]-3-methylpiperidine]", "values": [{"measurement": "degradation of sortilin", "setting": "[9]", "result": "increasing"}, {"measurement": "sortilin protein levels", "setting": "[9]", "result": "suppressing"}]}
{"molecule": "B1", "values": [{"measurement": "treatment of frontotemporal dementia and/or ALS", "setting": "[10]", "result": "successfully tested"}]}
